# Data: PMC10703884, “Targeting the COMMD4–H2B protein complex in lung cancer” (British Journal of Cancer, 2023)
# Entries after “also recorded” stand apart in the source; their conditions may differ. No end group written: not given here.
# Tests used:
# [1] = system: H2B; assay: FLAG pull-down, COMMD4-FLAG versus A70K mutant with H2B; type: binding; conditions: compared to COMMD4-FLAG
# Description: (§1) For siRNA transfections, cells were transfected with negative control or COMMD4 siRNA #2 (CCAUGUCCCUCUCAGCAGA[dT][dT] MISSION® siRNA, Sigma-Aldrich) using RNAiMax (Life Technologies) as previously described and samples were analysed 48 to 72 h post-transfection. The H2B wild-type (FLAG-H2BWT) and mutant (FLAG-H2BMUT1) expression constructs were generated with the 10-amino acid peptide and the corresponding mutant cloned into the expression vector pCDNA3.1/(+)-N-DYK containing an N-terminal FLAG tag and a C-terminal nuclear localisation signal (AAKRVKLDS) (GenScript). A70K FLAG-COMMD4 expression construct was generated by mutating the corresponding COMMD4-FLAG construct to harbour an A70K mutation (GenScript). Cells were mock-transfected, or transfected with FLAG-H2BWT/FLAG-H2BMUT1, or COMMD4-FLAG/A70K with FuGENE® HD (Promega) using the manufacturer’s protocol and analysed 24 h post-transfection.
# Co-immunoprecipitations were performed as previously summarised, using ice-cold NP40 buffer. Assays for co-immunoprecipitations were performed at 4 °C from HEK293T, transiently expressing the FLAG-H2B WT or MUT plasmid. Proteins were captured using anti-FLAG M2 Dynabeads (ThermoFisher) and washed three times in NP40 buffer prior to analysis. […]
# [2] = system: NSCLC cells; assay: Immunofluorescence γH2AX and MDC1 foci, NSCLC cells; type: cell-based; conditions: 6 Gy IR, 0.5 to 2 h post-IR, 50 cells per condition, three independent experiments
# Description: as §1
# NSCLC and control cells transfected with siRNA or H2B plasmids were grown in optical glass bottom 96-well plates (Cellvis). Post-treatment, cells were pre-extracted with ice-cold extraction buffer (20 mM HEPES (pH 8), 20 mM NaCl, 5 mM MgCl2, 1 mM ATP, 0.5% NP40), to remove the soluble proteins and processed as previous. Images were captured using a Delta Vision PDV microscope 100x/1.42 Oil objective (Applied Precision, Inc). All immunofluorescence figures were assembled using Adobe Photoshop. High-content microscopy was performed using the InCell Analyzer 6500 Imaging System (GE Healthcare Life Sciences). Images were analysed using the InCarta Image Analysis software (GE Healthcare Life Sciences) where a minimum of 50 nuclei were quantified per experiment.
# Fig. 4 Induction of DSBs in NSCLC and control cells. a Immunofluorescence staining of H1299 NSCLC cells transfected with control or COMMD4 siRNA #2 and FLAG-H2BWT or FLAG-H2BMUT1 is shown. […]
# independent experiments where 50 cells were quantified per condition. γH2AX is shown in […]
# mean ± SD from three independent experiments where 50 cells were quantified per condition.
# [3] = system: HBEC3-KT cells; assay: Immunofluorescence γH2AX and MDC1 foci, HBEC3-KT cells; type: cell-based, Human; conditions: 6 Gy IR, 50 cells per condition, three independent experiments
# Description: as §1
# NSCLC and control cells transfected with siRNA or H2B plasmids were grown in optical glass bottom 96-well plates (Cellvis). Post-treatment, cells were pre-extracted with ice-cold extraction buffer (20 mM HEPES (pH 8), 20 mM NaCl, 5 mM MgCl2, 1 mM ATP, 0.5% NP40), to remove the soluble proteins and processed as previous. […] Images were analysed using the InCarta Image Analysis software (GE Healthcare Life Sciences) where a minimum of 50 nuclei were quantified per experiment. […]
# [4] = system: H460, H1299 and CRL5889 NSCLC cells; assay: Clonogenic cell viability after IR, NSCLC cells; type: cell-based; conditions: varying IR doses, 7–10 days recovery, three independent experiments, compared to control siRNA or FLAG-H2BMUT1/mock
# Description: (§2) H1299, CRL5889 and H460 cells were cultured in Roswell Park Memorial Institute (RPMI) 1640 medium (Life Technologies) containing 10% foetal bovine serum (Thermo Fisher Scientific). Human bronchial epithelial cells (HBEC3-KT) were maintained in keratinocyte serum-free medium supplemented with epidermal growth factor and bovine pituitary extract (Life Technologies). The histology features and origin of all cell lines used have been previously described. Cell lines were authenticated using STR profiling. Cells were grown in a humidified incubator at 37 °C/5% CO2 atmosphere. All cell lines were verified to be free of mycoplasma contamination.
# (§3) Irradiations were done at room temperature using a ^137Cs source (Gammacell 40 Exactor [MDS Nordion]; dose rate 1.1 Gy/min). Phalloidin-Atto 488 was purchased from Sigma-Aldrich and Hoechst 33342 was purchased from Thermo Fisher Scientific.
# (§4) For siRNA transfections, cells were transfected with negative control or COMMD4 siRNA #2 (CCAUGUCCCUCUCAGCAGA[dT][dT] MISSION® siRNA, Sigma-Aldrich) using RNAiMax (Life Technologies) as previously described and samples were analysed 48 to 72 h post-transfection. […] Cells were mock-transfected, or transfected with FLAG-H2BWT/FLAG-H2BMUT1, or COMMD4-FLAG/A70K with FuGENE® HD (Promega) using the manufacturer’s protocol and analysed 24 h post-transfection. […]
# [5] = system: HBEC3-KT cells; assay: Clonogenic cell viability after IR, HBEC3-KT cells; type: cell-based, Human; conditions: varying IR doses, 7–10 days recovery, three independent experiments
# Description: as §2, §3, §4
# [6] = system: HBEC3-KT cells; assay: Annexin V-FITC / propidium iodide apoptosis, HBEC3-KT cells; type: cell-based, Human; conditions: flow cytometry, three independent experiments
# Description: as §1, with “A70K FLAG-COMMD4 expression construct was generated by mutating the corresponding COMMD4-FLAG construct to harbour an A70K mutation (GenScript).” left out
# The Annexin V-FITC apoptosis kit (United Bioresearch, ALX-850-020-K101, Enzo Life Sciences, Farmingdale, NY, USA) was used to measure viable and apoptotic cells, as previously described. […] CytExpert 2.0 software was used for data acquisition and analysed using the FlowJo v10 software.
# Fig. 5 Induction of mitotic catastrophe and apoptosis in NSCLC cells. a Emerin and phalloidin staining respectively in three NSCLC and control HBEC3-KT cells. […] Asterix (*) denotes *P < 0.05 and ** P < 0.005 from 100 cells counted. […] The live cells were stained with Annexin V-FITC and propidium iodide and analysed by flow cytometer. […]
# [7] = target: T1, recombinant GST-COMMD4 (Homo sapiens, UniProt Q9H0A8); assay: ELISA, binding of H2B peptide and recombinant COMMD4; conditions: H2B peptide 10 μg/ml on NeutrAvidin plate 2 h; recombinant GST-COMMD4 at different concentrations 45 min, room temperature; anti-COMMD4 antibody, chemiluminescent substrate
# T1 construct: purchased Abnova H00054939-P01
# Description: ELISA was performed using NeutrAvidin High Binding Capacity Coated 96-Well Plates (Thermo Scientific, 15507) according to the manufacturer’s instructions. Briefly, to the appropriate well, added 100 μl of H2B peptide at 10 μg/ml for 2 h at room temperature. Washed each well three times with NP40 buffer, blocked the plate overnight with 4% BSA in NP40 buffer and the next day added different concentrations of recombinant GST-COMMD4 as shown, for 45 min at room temperature. Washed each well three times with NP40 buffer and added anti-COMMD4 antibody for 45 min at room temperature followed by the enzyme-linked secondary antibody for 30 min at room temperature followed by detection using SuperSignal ELISA Pico Chemiluminescent Substrate (Thermo Scientific, 37070).
# [8] = system: COMMD4-H2B interaction; assay: COMMD4 pull-down competition (COMMD4-H2B interaction); type: biochemical; conditions: 1 μg (or amount specified) peptide pre-incubated with recombinant COMMD4 (300 ng) 30 min 4 °C, then 1 μg recombinant H2B 30 min 4 °C, immunoblot
# Description: 300 ng of recombinant GST-COMMD4 (Abnova, H00054939-P01) was incubated with 1 μg of recombinant H2B (NEB, M2505S) in NP40 buffer for 30 min at 4 °C. For competition experiments, 1 μg (or the amount specified) of the N-terminal biotin-tagged H2B peptide (GenScript) was pre-incubated with recombinant COMMD4 for 30 min at 4 °C prior to addition of recombinant H2B. Proteins were captured using Streptavidin Dynabeads (ThermoFisher) or Protein A Dynabeads (ThermoFisher), washed three times in NP40 buffer, resuspended in 4X Leammli sample buffer (250 mM Tris pH 6.8, 8% SDS, […], 0.02% bromophenol blue, 8% β-mercaptoethanol) and immunoblotted with the indicated antibodies.
# Fig. 2 In vitro binding of the H2B peptide. a In vitro binding of biotin-tagged H2B 10-amino acid peptide (H2BWTpep) and H2BMUT1pep (mutation of key amino acid) with COMMD4. […] FLAG-H2BWT and FLAG-H2BMUT1 were immunoprecipitated from HEK293T cells and the co-eluting proteins were immunoblotted with antibodies against […] and FLAG.
# [9] = Circular dichroism (CD) of H2B peptides; type: physicochemical; conditions: 0.1 mg/ml peptide, 50% TFE, 10 mM phosphate pH 7.2, 50 mM sodium fluoride, 20 °C, average of five scans
# Description: For Circular Dichroism (CD), […] and H2BMUT1 peptides were resuspended at a concentration of 0.1 mg/ml in 50% 2,2,2-Trifluoroethanol (Sigma, T63002) with 10 mM Phosphate Buffer pH 7.2 and 50 mM sodium fluoride. The buffer solutions were filtered and degassed before diluting the peptides. The peptides were loaded into a 1 mm path-length quartz cuvette. CD spectra were measured at 20 °C in the far-UV from 250 to 190 nm with a Jasco J-1500 spectropolarimeter at a 0.1 nm interval with a 20 nm/min scan rate. All CD data represent an average of five scans, and the background was corrected with the buffer-matched diluent. The results were converted to the units of molar ellipticity vs. wavelength.
# T1 sequence (Q9H0A8 whole entry): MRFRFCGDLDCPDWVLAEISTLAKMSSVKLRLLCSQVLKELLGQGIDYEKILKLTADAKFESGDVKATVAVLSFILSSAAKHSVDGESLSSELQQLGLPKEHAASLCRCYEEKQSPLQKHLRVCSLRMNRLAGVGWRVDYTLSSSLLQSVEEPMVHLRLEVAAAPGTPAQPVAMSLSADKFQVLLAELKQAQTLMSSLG
substance,measurement,setting,value
A70K COMMD4-FLAG: COMMD4-FLAG construct mutated to harbour an A70K mutation,binding with H2B of COMMD4 mutant,[1],showed reduced binding with H2B
"CCAUGUCCCUCUCAGCAGA[dT][dT] [COMMD4 siRNA, reference compound]",γH2AX and MDC1 (DNA repair) foci,[2],significantly more γH2AX and MDC1 foci
same,γH2AX and MDC1 (DNA repair) foci,[3],exhibited increased DNA repair foci
same,sensitivity to ionising radiation (clonogenic viability),[4],hypersensitive to IR compared to control siRNA treated cells
same,sensitivity to ionising radiation (clonogenic viability),[5],neither hypersensitive to IR
FLAG-H2BMUT1: corresponding mutant cloned into expression vector containing an N-terminal FLAG tag and a C-terminal nuclear localisation signal ({FLAG}-SFVNDKFERIAAKRVKLDS),γH2AX and MDC1 (DNA repair) foci,[2],"not FLAG-H2BMUT1, displayed a similar phenotype to COMMD4 siRNA depleted cells and had significantly more DNA repair foci"
same,induction of apoptosis,[6],no significant induction of apoptosis
SFVNDIFERI [H2BWTpep],EC50,[7],70 nM
SFVNDKFERI [H2BMUT1pep],effect on COMMD4-H2B interaction,[8],did not affect the COMMD4-H2B interaction; also recorded: maintains the COMMD4-H2B interaction
same,peak ellipticity maximum,[9]; 1 mm path length,190 nm
same,peak minimum,[9]; 1 mm path length,202 nm
same,secondary structure / helicity,[9],possesses little helical structure even in 50% TFE
